Measurements taken from paper PMC3222680 (PLoS ONE, 2011).

Key:
α19′C βWT GlyR = α19′C βWT GlyR (Homo sapiens, UniProt P23415+P48167, C137A/C313A/C69A/R299C); settings: MTSR-labeled, oocytes
Procedure: (§1) The human GlyR α1 and β subunit cDNAs were subcloned into the pcDNA3.1zeo+ (Invitrogen) or pGEMHE [44] plasmid vectors for expression in HEK293 cells or Xenopus oocytes, respectively. Site-directed mutagenesis and chimera construction were performed using the QuickChange (Stratagene, La Jolla, CA, USA) mutagenesis and multiple-template-based sequential PCR protocols, respectively.
(§2) For the VCF experiments, both GlyR α1 and β subunit cDNAs in the pGEMHE vector were mutated to substitute non-essential background cysteines with alanines, including α1C41A and βC115AC291A [46], [47].
(§3) VCF experiments were performed on GlyRs expressed in Xenopus laevis oocytes. Female Xenopus laevis frogs were purchased from Xenopus Express, France. Details of oocyte preparation, GlyR expression and VCF recording are described elsewhere. Briefly, the mMessage mMachine kit (Ambion, Austin, TX) was used to generate capped mRNA. The mRNA was injected into oocytes of the female Xenopus laevis frog with 10 ng (1 ng α1 and 9 ng β or any other chimeric subunits) per oocyte. After injection, the oocytes were incubated in ND96 solution [33] for 3–4 days at 18 °C before recording.
(§4) The sulfhydryl-reactive reagent, sulforhodamine methanethiosulfonate (MTSR, Toronto Research Chemicals, North York, Ontario, Canada), was used to label 19′C residues. […] The oocytes were then transferred to the recording chamber and perfused with ND96 solution. The current was recorded by the two-electrode voltage clamp configuration and the recording electrode was filled with 3 M KCl. Cells were voltage-clamped at −40 mV. The fluorescence was recorded using the PhotoMax 200 photodiode detection system (Dagan Corp., Minneapolis, MN).
(§5) Results are expressed as mean±standard error of the mean of three or more independent experiments. […] Statistical significance was determined using the Student's t-test.

αWT β19′C GlyR = αWT β19′C GlyR (Homo sapiens, UniProt P23415+P48167, A317C/C137A/C313A/C69A); settings: MTSR-labeled, oocytes
Procedure: as §1, §2, §3, §4, §5

αWT αB-β19′C GlyR = αWT αB-β19′C GlyR (Homo sapiens, UniProt P23415+P48167, A80Q/C69A); settings: MTSR-labeled, oocytes
Procedure: as §1, §2, §3, §4, §5

αWT α-β19′C GlyR = αWT α-β19′C GlyR (Homo sapiens, UniProt P23415+P48167, C69A); settings: MTSR-labeled, oocytes
Procedure: as §1, §2, §3, §4, §5

αWT β-α19′C GlyR = αWT β-α19′C GlyR (Homo sapiens, UniProt P23415+P48167, C137A/C69A/R299C); settings: MTSR-labeled, oocytes
Procedure: as §1, §2, §3, §4, §5

αWT αT-β19′C GlyR = αWT αT-β19′C GlyR (Homo sapiens, UniProt P23415+P48167, A317C/C137A/C313A/C69A/Q95A); settings: MTSR-labeled, oocytes
Procedure: as §1, §2, §3, §4, §5

homomeric α1Y27′A GlyR = homomeric α1Y27′A GlyR (Homo sapiens, UniProt P23415, Y307A); settings: HEK293
Procedure: as §1
(§6) The effects of the hyperekplexia-mimicking mutations, K24′A, V25′A and Y27′A, were examined on GlyRs expressed in HEK293 cells (ATCC). Details of the HEK293 cell culture, GlyR expression and electrophysiological recording of the HEK293 cells are described elsewhere. Briefly, HEK293 cells were maintained in DMEM supplemented with 10% fetal bovine serum. Cells were transfected using a calcium phosphate precipitation protocol. When co-transfecting the α1 together with the β or any other chimera subunits, their respective cDNAs were combined in a ratio of 1∶10. In addition, the pEGFP-N1 (Clontech) was co-transfected to facilitate identifying the transfected cells. […] Cells were treated with external Ringer's solution and internal CsCl solution [30]. Cells were voltage-clamped at −40 mV. When the heteromeric GlyRs were expressed, the picrotoxin sensitivity was tested to confirm that the majority of receptors are heteromers, [30].

[1] = tested on: chimera α–β or chimera β–α transfected alone; test: Whole cell patch-clamp, chimeras transfected alone into HEK293 cells; type: cell-based, human; settings: glycine up to 100 mM, data not shown
Procedure: as §1, §6

αY27′A α-βWT GlyR = αY27′A α-βWT GlyR (Homo sapiens, UniProt P23415+P48167, Y307A)
Procedure: as §1, §6, §5

αY27′A βWT GlyR = αY27′A βWT GlyR (Homo sapiens, UniProt P23415+P48167, Y307A)
Procedure: as §1, §6, §5

αY27′A β-αWT GlyR = αY27′A β-αWT GlyR (Homo sapiens, UniProt P23415+P48167, Y307A)
Procedure: as §1
For the β-α chimeras used for determining the effect of hyperekplexia-mimicking mutations on α1 β GlyR channel function, the Thr at the M2 6′ position was replaced by a Cys. […] Through such a modification, picrotoxin resistance was used to distinguish the heteromeric α1 β-α GlyR from the homomeric α1 GlyR when the α1 and β-α subunits were co-expressed.
The effects of the hyperekplexia-mimicking mutations, K24′A, V25′A and Y27′A, were examined on GlyRs expressed in HEK293 cells (ATCC). Details of the HEK293 cell culture, GlyR expression and electrophysiological recording of the HEK293 cells are described elsewhere. Briefly, HEK293 cells were maintained in DMEM supplemented with 10% fetal bovine serum. Cells were transfected using a calcium phosphate precipitation protocol. […]
as §5

[2] = tested on: α-β, β-α, αB-β and αT-β subunits expressed alone; settings: chimeric subunits expressed alone in oocytes; data not shown
Procedure: as §3, §4

[3] = Hill coefficient of glycine-induced current

αWT αB-β19′C GlyR, sequence (P23415 29-449 isoform P23415-2 C69A): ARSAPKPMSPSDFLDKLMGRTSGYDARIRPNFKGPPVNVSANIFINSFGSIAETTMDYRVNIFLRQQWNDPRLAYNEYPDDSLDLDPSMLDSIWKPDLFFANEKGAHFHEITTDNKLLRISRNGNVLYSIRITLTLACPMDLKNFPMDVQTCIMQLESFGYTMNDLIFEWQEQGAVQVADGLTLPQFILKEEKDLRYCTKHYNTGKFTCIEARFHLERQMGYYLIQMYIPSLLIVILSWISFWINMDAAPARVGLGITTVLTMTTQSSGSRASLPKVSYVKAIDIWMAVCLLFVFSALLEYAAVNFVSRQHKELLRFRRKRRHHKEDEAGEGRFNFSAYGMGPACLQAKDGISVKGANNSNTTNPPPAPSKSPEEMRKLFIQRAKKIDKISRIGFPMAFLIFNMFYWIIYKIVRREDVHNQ
αWT αB-β19′C GlyR, sequence (P23415+P48167 fused with the stated changes): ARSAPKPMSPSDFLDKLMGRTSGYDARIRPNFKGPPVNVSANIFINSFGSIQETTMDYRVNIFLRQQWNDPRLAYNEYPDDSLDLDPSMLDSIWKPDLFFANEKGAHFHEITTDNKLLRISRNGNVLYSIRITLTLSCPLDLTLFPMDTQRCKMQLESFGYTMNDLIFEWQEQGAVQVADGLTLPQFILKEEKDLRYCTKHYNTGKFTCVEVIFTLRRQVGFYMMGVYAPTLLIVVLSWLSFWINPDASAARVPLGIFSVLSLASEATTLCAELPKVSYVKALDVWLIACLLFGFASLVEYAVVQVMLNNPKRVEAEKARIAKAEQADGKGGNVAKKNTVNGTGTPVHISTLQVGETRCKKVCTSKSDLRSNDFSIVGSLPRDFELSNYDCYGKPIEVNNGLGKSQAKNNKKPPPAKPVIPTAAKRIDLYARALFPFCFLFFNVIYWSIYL
αWT α-β19′C GlyR, sequence (P23415 29-449 isoform P23415-2 C69A): as the sequence (P23415 29-449 isoform P23415-2 C69A) above
αWT α-β19′C GlyR, sequence (P23415+P48167 fused with the stated changes): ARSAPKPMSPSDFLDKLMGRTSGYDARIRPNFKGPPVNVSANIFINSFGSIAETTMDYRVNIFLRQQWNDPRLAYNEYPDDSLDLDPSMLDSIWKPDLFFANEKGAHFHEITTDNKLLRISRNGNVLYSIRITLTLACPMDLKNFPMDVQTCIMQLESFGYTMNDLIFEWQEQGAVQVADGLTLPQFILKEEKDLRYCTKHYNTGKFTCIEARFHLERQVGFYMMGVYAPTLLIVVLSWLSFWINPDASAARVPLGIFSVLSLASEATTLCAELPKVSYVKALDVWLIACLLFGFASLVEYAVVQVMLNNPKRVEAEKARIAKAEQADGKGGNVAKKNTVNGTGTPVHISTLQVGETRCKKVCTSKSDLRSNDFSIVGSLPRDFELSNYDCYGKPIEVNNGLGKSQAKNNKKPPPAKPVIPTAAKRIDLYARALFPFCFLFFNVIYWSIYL
αWT αT-β19′C GlyR, sequence (P23415 29-449 isoform P23415-2 C69A): as the sequence (P23415 29-449 isoform P23415-2 C69A) above
αWT αT-β19′C GlyR, sequence (P48167 23-497 with the stated changes): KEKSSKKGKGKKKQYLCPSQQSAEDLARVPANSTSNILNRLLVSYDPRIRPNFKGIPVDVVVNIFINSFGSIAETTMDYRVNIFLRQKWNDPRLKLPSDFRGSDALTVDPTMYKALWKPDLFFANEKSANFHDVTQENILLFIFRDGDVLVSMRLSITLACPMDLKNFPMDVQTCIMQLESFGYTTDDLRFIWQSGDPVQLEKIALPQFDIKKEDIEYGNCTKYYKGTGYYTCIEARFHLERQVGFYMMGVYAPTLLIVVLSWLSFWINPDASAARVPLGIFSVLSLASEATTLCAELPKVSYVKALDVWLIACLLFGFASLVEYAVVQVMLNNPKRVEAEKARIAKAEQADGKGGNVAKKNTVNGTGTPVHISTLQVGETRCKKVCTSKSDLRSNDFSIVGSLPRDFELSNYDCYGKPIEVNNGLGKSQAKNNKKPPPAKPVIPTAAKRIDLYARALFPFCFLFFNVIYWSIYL
αWT β-α19′C GlyR, sequence (P23415 29-449 isoform P23415-2 C69A): as the sequence (P23415 29-449 isoform P23415-2 C69A) above
αWT β-α19′C GlyR, sequence (P48167+P23415 fused with the stated changes): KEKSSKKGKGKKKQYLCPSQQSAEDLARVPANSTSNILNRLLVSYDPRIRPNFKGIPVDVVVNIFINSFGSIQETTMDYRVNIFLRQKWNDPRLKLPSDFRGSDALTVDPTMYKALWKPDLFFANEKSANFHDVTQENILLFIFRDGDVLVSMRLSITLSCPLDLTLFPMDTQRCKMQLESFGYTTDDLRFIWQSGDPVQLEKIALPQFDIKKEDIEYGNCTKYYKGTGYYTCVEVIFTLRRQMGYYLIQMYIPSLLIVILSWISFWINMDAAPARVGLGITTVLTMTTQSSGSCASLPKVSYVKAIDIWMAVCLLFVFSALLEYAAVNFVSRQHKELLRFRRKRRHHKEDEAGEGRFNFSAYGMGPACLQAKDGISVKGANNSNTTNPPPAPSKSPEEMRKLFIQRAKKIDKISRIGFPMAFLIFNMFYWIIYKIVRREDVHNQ
αWT β19′C GlyR, sequence (P23415 29-449 isoform P23415-2 C69A): as the sequence (P23415 29-449 isoform P23415-2 C69A) above
αWT β19′C GlyR, sequence (P48167 23-497 C137A/C313A/A317C): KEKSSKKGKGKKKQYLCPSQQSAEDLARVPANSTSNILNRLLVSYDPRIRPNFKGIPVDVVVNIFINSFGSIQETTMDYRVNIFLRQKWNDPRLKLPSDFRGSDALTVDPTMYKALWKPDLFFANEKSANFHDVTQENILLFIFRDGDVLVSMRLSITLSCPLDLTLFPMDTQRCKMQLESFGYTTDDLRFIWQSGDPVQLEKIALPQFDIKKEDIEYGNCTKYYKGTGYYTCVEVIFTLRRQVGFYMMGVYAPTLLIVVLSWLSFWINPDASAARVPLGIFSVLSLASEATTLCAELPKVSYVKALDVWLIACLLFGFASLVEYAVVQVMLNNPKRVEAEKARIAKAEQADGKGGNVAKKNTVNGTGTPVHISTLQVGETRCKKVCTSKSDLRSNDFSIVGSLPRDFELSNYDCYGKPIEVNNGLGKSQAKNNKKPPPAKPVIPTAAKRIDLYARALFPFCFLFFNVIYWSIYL
homomeric α1Y27′A GlyR, sequence (P23415 29-457 Y307A): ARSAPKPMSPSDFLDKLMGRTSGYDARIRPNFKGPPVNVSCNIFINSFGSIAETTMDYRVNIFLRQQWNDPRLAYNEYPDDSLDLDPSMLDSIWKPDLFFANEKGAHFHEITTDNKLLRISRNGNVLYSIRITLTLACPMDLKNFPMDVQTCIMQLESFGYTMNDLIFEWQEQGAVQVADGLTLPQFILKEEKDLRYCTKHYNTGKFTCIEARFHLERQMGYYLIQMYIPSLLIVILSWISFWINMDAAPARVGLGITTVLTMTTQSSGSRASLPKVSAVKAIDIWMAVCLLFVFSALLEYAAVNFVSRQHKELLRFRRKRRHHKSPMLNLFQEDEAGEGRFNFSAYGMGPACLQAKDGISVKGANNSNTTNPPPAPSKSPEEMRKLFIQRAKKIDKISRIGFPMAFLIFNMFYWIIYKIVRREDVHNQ

In the case of `NCC(=O)O` [glycine], the “Current Imax” value (α19′C βWT GlyR) was 3.51±0.24 µA, the “Current nH” value (α19′C βWT GlyR) was 1.20±0.16 and the “Fluorescence Fmax” value (α19′C βWT GlyR) was 9.42±0.53%. For the same compound, the “Fluorescence nH” value (α19′C βWT GlyR) was 0.97±0.04, the “Current Imax” value (αWT β19′C GlyR) was 2.46±0.19 µA and the “Current nH” value (αWT β19′C GlyR) was 2.73±0.38. For the same compound, the “Fluorescence Fmax” value (αWT β19′C GlyR) was 7.58±0.84%, the “Fluorescence nH” value (αWT β19′C GlyR) was 1.47±0.12 and the “Current Imax” value (αWT αB-β19′C GlyR) was 2.57±0.14 µA. The “Current nH” value (αWT αB-β19′C GlyR) was 2.11±0.11, the “Fluorescence Fmax” value (αWT αB-β19′C GlyR) was 8.52±1.07% and the “Fluorescence nH” value (αWT αB-β19′C GlyR) was 1.19±0.12. For the same compound, the “Current Imax” value (αWT α-β19′C GlyR) was 1.53±0.09 µA, the “Current nH” value (αWT α-β19′C GlyR) was 2.36±0.32 and the “Fluorescence Fmax” value (αWT α-β19′C GlyR) was 6.58±1.17%. For the same compound, the “Fluorescence nH” value (αWT α-β19′C GlyR) was 2.10±0.13, the “Current Imax” value (αWT β-α19′C GlyR) was 3.19±0.08 µA and the “Current nH” value (αWT β-α19′C GlyR) was 2.26±0.11. The “Fluorescence Fmax” value (αWT β-α19′C GlyR) was 3.86±0.37%, the “Fluorescence nH” value (αWT β-α19′C GlyR) was 1.15±0.05 and the “Current Imax” value (αWT αT-β19′C GlyR) was 2.19±0.20 µA. The “Current nH” value (αWT αT-β19′C GlyR) was 1.45±0.06, the “Fluorescence Fmax” value (αWT αT-β19′C GlyR) was 11.5±0.6% and the “Fluorescence nH” value (αWT αT-β19′C GlyR) was 2.31±0.06. For the same compound, the glycine-induced current (homomeric α1Y27′A GlyR) was “no glycine-induced current was detected”, the “current upon application of glycine” value [1] was “neither chimera, when transfected alone into HEK293 cells, induced any current” and the nH (αY27′A α-βWT GlyR; [3]) was 0.78±0.03. For the same compound, the Imax (αY27′A α-βWT GlyR; glycine-induced current) was 5.7±1.3 nA, the nH (αY27′A βWT GlyR; [3]) was 1.1±0.0 and the Imax (αY27′A βWT GlyR; glycine-induced current) was 2.0±1.0 nA. The nH (αY27′A β-αWT GlyR; [3]) was 1.0±0.1, the Imax (αY27′A β-αWT GlyR; glycine-induced current) was 1.3±0.3 nA and the “glycine-induced current and fluorescence changes” value [2] was “neither glycine-induced current nor fluorescence changes could be detected”.
